Numbered stars: 1 amine (or outer) side, 2 acyl side, 3 side chain; on linkers, the order of the positions; unused ones are H or OH. Bridge positions count the residues as written; N and C are the ends. Square brackets hold non-standard residues; d marks the D form. Peptide text beside a SMILES is read from it. I, II: the chains in the order shown. * marks the point of attachment. Actinocin(9to1) = Cc1c2oc3c(C)ccc(C(=O)[*:1])c3nc-2c(C(=O)[*:2])c(N)c1=O; Leu(3R-OH,Nα-propionyl) = CCC(=O)N[C@H](C(=O)*)[C@H](O)C(C)C; X1 = CC(C)[C@@H](O[*:3])[C@H](N[*:1])C(=O)[*:2]; NMeT = CN[C@H](C(=O)O)[C@@H](C)O; dPhLac = O=C(O)[C@H](O)Cc1ccccc1; NMeV = CN[C@H](C(=O)O)C(C)C; NMeA = CN[C@@H](C)C(=O)O; NMeDha = C=C(NC)C(=O)O; Sar = CNCC(=O)O
Tests used:
[1] = system: Protein synthesis in B16-F10 melanoma cells; assay: Inhibition of macromolecule synthesis: protein (3H-leucine incorporation); format: cell-based, murine; settings: Mus musculus, 4 hours + 60 minutes label, read-out: IC₅₀ Protein
Experimental: (§2) B16-F10 cells (10⁵ cells/ml) were incubated with test materials at 37°C for 4.5 hours (for DNA synthesis) or 4 hours (for RNA and protein syntheses). Labelled precursor, ³H-thymidine, ¹⁴C-uridine or ³H-leucine was added to the culture and further incubated for 30 minutes (for DNA) or 60 minutes (for RNA and protein). After washing with chilled 5% trichloroacetic acid solution, the radioactivity incorporated into the acid-insoluble fraction of the tumor cells was determined by a liquid scintillation counter. Actinomycin D was used as a reference compound.

[2] = system: DNA synthesis in B16-F10 melanoma cells; assay: Inhibition of macromolecule synthesis: DNA (3H-thymidine incorporation); format: cell-based, murine; settings: Mus musculus, 4.5 hours + 30 minutes label, read-out: IC₅₀ DNA
Experimental: as §2

[3] = system: RNA synthesis in B16-F10 melanoma cells; assay: Inhibition of macromolecule synthesis: RNA (14C-uridine incorporation); format: cell-based, murine; settings: Mus musculus, 4 hours + 60 minutes label, read-out: IC₅₀ RNA
Experimental: as §2

platelet aggregation = settings: Fujioka, et al, J. Org. Chem. 53, 2820 (1988); cited from earlier work
[4] = Fujioka, et al, J. Org. Chem. 53, 2820 (1988); cited from earlier work
L1210 leukemia = assay: In vivo antitumor activity in tumor-bearing mice, L1210 leukemia (ip); settings: L1210 leukemia ip, CDF₁ mice, Q1D x 1; for T/C: significant if T/C ≧ 125%
Experimental: (§1) In vivo antitumor activity of BU-3983T was examined using tumor-bearing mice. Male BDF₁ mice were intraperitoneally inoculated with 0.5 ml of 10% melanotic melanoma B16 brei, and female CDF₁ mice were intraperitoneally inoculated with 0.4 ml of diluted ascitic fluid containing 10⁶ lymphocytic leukemia P388 cells or 10⁵ lymphoid leukemia L1210 cells. Mitomycin C was used as a reference compound. Test compounds were intraperitoneally administered to the mice by the following treatment schedules: once a day on day 1 only (Q1D x 1), on days 1, 5 and 9 (Q4D x 3) or on days 1 to 9 (Q1D x 9). […]

P388 leukemia = assay: In vivo antitumor activity in tumor-bearing mice, P388 leukemia (ip); settings: P388 leukemia ip, CDF₁ mice, Q1D x 1; for T/C: significant if T/C ≧ 125%
Experimental: as §1

B16 melanoma = assay: In vivo antitumor activity in tumor-bearing mice, B16 melanoma (ip); settings: B16 melanoma ip, BDF₁ mice, Q4D x 3; for T/C: significant if T/C ≧ 125%
Experimental: as §1

[5] = system: Gram-positive microorganisms; settings: Maehr, et al, J. Antibiotics, 39, 17 (1986); cited from earlier work
Gram-negative bacteria = settings: Sheehan et al, J. Am. Chem. Soc., 90, 462 (1968); cited from earlier work
Gram-positive organism = settings: Sheehan et al, J. Am. Chem. Soc., 90, 462 (1968); cited from earlier work

Compound: Cc1c2oc3c(C)ccc(C(=O)N[C@@H]4C(=O)N[C@H](C(C)C)C(=O)N5CCC[C@H]5C(=O)N(C)CC(=O)N(C)[C@@H](C(C)C)C(=O)O[C@@H]4C)c3nc-2c(C(=O)N[C@@H]2C(=O)N[C@H](C(C)C)C(=O)N3CCC[C@H]3C(=O)N(C)CC(=O)N(C)[C@@H](C(C)C)C(=O)O[C@@H]2C)c(N)c1=O [Actinomycin D, reference compound] (I: T[dV]P[Sar][NMeV] / II: T[dV]P[Sar][NMeV]; ester I:1-I:C, II:1-II:C; linker I:N-II:N via Actinocin(9to1))
- IC50 [1]: > 30 µg/mL
- IC50 [2]: 1.3 µg/mL
- IC50 [3]: 0.07 µg/mL

Compound: C=C1C(=O)N[C@@H](C)C(=O)N(C)[C@@H](C)C(=O)N[C@@H]([C@H](OC(=O)[C@@H](NC(=O)CC)[C@H](O)C(C)C)C(C)C)C(=O)N(C)[C@@H]([C@@H](C)OC)C(=O)O[C@H](C(C)C)[C@H](NC(C)=O)C(=O)O[C@H](Cc2ccccc2)C(=O)N1C [FR900359] (Ac-[X1][dPhLac][NMeDha]A[NMeA][X1](Leu(3R-OH,Nα-propionyl))[NMeT](Me); ester 1-C)
- inhibition of platelet aggregation (platelet aggregation): inhibition of platelet aggregation
- decrease of blood pressure [4]: decrease of blood pressure

Compound: CO[C@@]12[C@H](COC(N)=O)C3=C(C(=O)C(C)=C(N)C3=O)N1C[C@@H]1N[C@@H]12 [Mitomycin C, reference compound]
- Body weight change on day 4 (L1210 leukemia; 0.5 mg/kg/day ip): +1.5 g
- MST (Median survival time) (L1210 leukemia; 0.5 mg/kg/day ip): 10.0 days
- T/C (L1210 leukemia; 0.5 mg/kg/day ip): 125*² %
- Body weight change on day 4 (L1210 leukemia; 1 mg/kg/day ip): +1.5 g
- MST (Median survival time) (L1210 leukemia; 1 mg/kg/day ip): 10.0 days
- T/C (L1210 leukemia; 1 mg/kg/day ip): 125*² %
- Body weight change on day 4 (L1210 leukemia; 2 mg/kg/day ip): +1.0 g
- MST (Median survival time) (L1210 leukemia; 2 mg/kg/day ip): 10.5 days
- T/C (L1210 leukemia; 2 mg/kg/day ip): 131*² %
- Body weight change on day 4 (L1210 leukemia; 4 mg/kg/day ip): +0.5 g
- MST (Median survival time) (L1210 leukemia; 4 mg/kg/day ip): 11.0 days
- T/C (L1210 leukemia; 4 mg/kg/day ip): 138*² %
- Body weight change on day 4 (L1210 leukemia; 8 mg/kg/day ip): -0.3 g
- MST (Median survival time) (L1210 leukemia; 8 mg/kg/day ip): 12.5 days
- T/C (L1210 leukemia; 8 mg/kg/day ip): 156*² %
- Body weight change on day 4 (P388 leukemia; 0.25 mg/kg/day ip): +1.0 g
- MST (Median survival time) (P388 leukemia; 0.25 mg/kg/day ip): 11.5 days
- T/C (P388 leukemia; 0.25 mg/kg/day ip): 115%
- Body weight change on day 4 (P388 leukemia; 0.5 mg/kg/day ip): +1.5 g
- MST (Median survival time) (P388 leukemia; 0.5 mg/kg/day ip): 13.0 days
- T/C (P388 leukemia; 0.5 mg/kg/day ip): 130*² %
- Body weight change on day 4 (P388 leukemia; 1 mg/kg/day ip): +2.0 g
- MST (Median survival time) (P388 leukemia; 1 mg/kg/day ip): 14.0 days
- T/C (P388 leukemia; 1 mg/kg/day ip): 140*² %
- Body weight change on day 4 (P388 leukemia; 2 mg/kg/day ip): +0.5 g
- MST (Median survival time) (P388 leukemia; 2 mg/kg/day ip): 15.5 days
- T/C (P388 leukemia; 2 mg/kg/day ip): 155*² %
- Body weight change on day 4 (P388 leukemia; 4 mg/kg/day ip): -0.8 g
- MST (Median survival time) (P388 leukemia; 4 mg/kg/day ip): 16.5 days
- T/C (P388 leukemia; 4 mg/kg/day ip): 165*² %
- Body weight change on day 5 (B16 melanoma; 0.25 mg/kg/day ip): +0.8 g
- MST (Median survival time) (B16 melanoma; 0.25 mg/kg/day ip): 15.5 days
- T/C (B16 melanoma; 0.25 mg/kg/day ip): 119%
- Body weight change on day 5 (B16 melanoma; 0.5 mg/kg/day ip): +0.6 g
- MST (Median survival time) (B16 melanoma; 0.5 mg/kg/day ip): 18.0 days
- T/C (B16 melanoma; 0.5 mg/kg/day ip): 138*² %
- Body weight change on day 5 (B16 melanoma; 1 mg/kg/day ip): +0.8 g
- MST (Median survival time) (B16 melanoma; 1 mg/kg/day ip): 22.0 days
- T/C (B16 melanoma; 1 mg/kg/day ip): 169*² %
- Body weight change on day 5 (B16 melanoma; 2 mg/kg/day ip): +0.5 g
- MST (Median survival time) (B16 melanoma; 2 mg/kg/day ip): 27.5 days
- T/C (B16 melanoma; 2 mg/kg/day ip): 212*² %

Compound: C/C=C(\C)C(=O)[C@@H](/C=C(\C)[C@@H]1O[C@@](O)([C@](O)(CC)C(=O)N[C@@H]2C(=O)N3NCCC[C@H]3C(=O)N(O)[C@H](COC)C(=O)N(C)[C@H](C)C(=O)N3NCCC[C@@H]3C(=O)N[C@@H]([C@H](C)O)C(=O)O[C@@H]2C(C)C)CC[C@H]1C)CC [azinothricin]
- activity against Gram-positive microorganisms [5]: primarily active

Compound: Telomycin
- effect against most Gram-negative bacteria (Gram-negative bacteria): little or no effect
- activity against Gram-positive organism (Gram-positive organism): active
